Two compounds from publication PMC11891579, “Fluorescent PyrAte-(S)-citalopram conjugates enable imaging of the serotonin transporter in living tissue” (Chemical Science, 2025) can be followed below.

The target of one series is T1, YhSERT (Homo sapiens, UniProt P31645).
T1 construct: expressed in transfected cells
Nature of the series: radioligand uptake inhibition assay ([3H]5HT). In kind it is cell-based. The note with it: for IC50: HEK293 stably expressing YhSERT, 100 nM [3H]5HT, mean and SD, N = 3-6, read-out: IC50, uptake inhibition at SERT (YhSERT); for selectivity to SERT vs. DAT / selectivity to SERT vs. NET / selectivity to SERT vs. OCT3: from uptake inhibition IC50; for decrease of SERT affinity (IC50) compared to (S)-citalopram: uptake inhibition IC50; for Hill coefficient nH at SERT: uptake inhibition curve. How it is done:
(§1) 1. Biological characterization
(§2) 1.1. Experimental methods
(§3) Buffer and solution compositions (in mM) are as follows:
(§4) Krebs-HEPES buffer (KHB): 120 NaCl, 3 KCl, 2 CaCl2, 2 MgCl2, 20 glucose, 10 HEPES NaOH, pH = 7.3 – 7.4. […]
(§5) 10 mM glucose, 1.25 mM NaH2PO4, pH = 7.4 (oxygenated with 95% O2, 5% CO2).
(§6) Human embryonic kidney 293 cells (HEK293) stably expressing the mCherry-tagged, YFP-tagged, and GFP-tagged human isoforms of SERT (mCherry-SERT, YhSERT, GhSERT), DAT (YhDAT), NET (hNET), and OCT3 (YhOCT3) were cultured in Dulbecco's modified Eagle's medium (DMEM) with high glucose (4.5 g/L) and l-glutamine (584 mg/L), supplemented with 10% fetal calf serum (FCS), 100 units/mL penicillin and 100 µg/mL streptomycin. The cells were cultured in a humidified atmosphere (37 °C, 5% CO2). Geneticin (50 µg/mL), Blasticidin (6 µg/mL), and Zeocin® (150 µg/mL) were added to maintain the selection pressure for the stable cell lines. Cells were typically seeded 24 hours prior to the experiments.
(§7) For uptake inhibition experiments, cells were seeded at 3.6 x 10^4 cells/0.2 mL into 96-well plates coated […]
(§8) with poly-d-lysine (PDL). […]
(§9) For uptake inhibition experiments, the cell medium was aspirated and the cells were washed once with 0.2 mL/well KHB at room temperature. The cells were pre-incubated with increasing concentrations of the substance of interest, diluted in KHB (0.05 mL/well). The pre-incubation solution was replaced with 0.05 mL/well KHB solution still containing the substance of interest and additionally the tritiated substrate (100 nM [3H]DA for YhDAT; 100 nM [3H]5HT for YhSERT; 20 nM and 50 nM [3H]MPP+ for hNET and YhOCT3), after 6 minutes (YhSERT), 5 minutes (YhDAT, hNET), or 10 minutes (YhOCT3). Substrate uptake was stopped after one minute (for [3H]DA and [3H]5HT), three minutes, or […]
ten minutes (for [3H]MPP+), by exchange of the substrate-containing buffer with 0.2 mL ice-cold KHB.
The KHB was aspirated immediately. Cells were lysed and prepared for [3H] content analysis by adding 0.2 mL Ultima Gold™ XR liquid scintillation cocktail. Measurements were performed in a 1450 MicroBeta microplate liquid scintillation counter. Non-specific uptake was determined in the presence of 30 µM paroxetine (for YhSERT), 50 µM GBR12909 (for YhDAT and hNET), or 100 µM decynium-22 (for YhOCT3). […]

Another series addresses T2, YhOCT3 (Homo sapiens, UniProt O75751).
T2 construct: expressed in transfected cells
T2 sequence (O75751 1-556): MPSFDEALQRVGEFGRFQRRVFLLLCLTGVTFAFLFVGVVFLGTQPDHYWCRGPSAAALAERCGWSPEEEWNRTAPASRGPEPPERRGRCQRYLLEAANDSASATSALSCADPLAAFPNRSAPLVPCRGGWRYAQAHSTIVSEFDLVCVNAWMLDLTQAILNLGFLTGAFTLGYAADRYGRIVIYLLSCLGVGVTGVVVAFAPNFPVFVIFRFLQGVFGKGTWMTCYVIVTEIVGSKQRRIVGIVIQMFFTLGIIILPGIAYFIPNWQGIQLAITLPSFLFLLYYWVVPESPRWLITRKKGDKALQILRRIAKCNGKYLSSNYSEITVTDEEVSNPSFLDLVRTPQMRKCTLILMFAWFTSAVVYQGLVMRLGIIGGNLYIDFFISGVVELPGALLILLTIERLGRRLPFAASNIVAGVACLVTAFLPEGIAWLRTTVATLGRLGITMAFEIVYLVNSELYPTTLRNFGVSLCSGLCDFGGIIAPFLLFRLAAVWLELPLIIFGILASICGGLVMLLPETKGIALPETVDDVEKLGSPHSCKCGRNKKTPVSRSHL
Nature of the series: radioligand uptake inhibition assay ([3H]MPP+). In kind it is cell-based. As to conditions: for IC50: HEK293 stably expressing YhOCT3, 50 nM [3H]MPP+, mean and SD, N = 3-6, read-out: IC50, uptake inhibition at OCT3 (YhOCT3); for Hill coefficient nH at OCT3: uptake inhibition curve. As to the method:
as §1, §2, §3, §4, §5, §6, §7, §8, §9
The KHB was aspirated immediately. […] Non-specific uptake was determined in the presence of 30 µM paroxetine (for YhSERT), 50 µM GBR12909 (for YhDAT and hNET), or 100 µM decynium-22 (for YhOCT3). […]
[3H]-imipramine, and increasing concentrations of test compound, for 60 min at 20 – 22 °C. […] The amount of radioactivity in the filters was measured using a Tri-Carb 2800TR liquid scintillation analyzer (PerkinElmer). The Ki was calculated from the measured IC50 using the Cheng-Prusoff equation.
Prior to imaging, cell culture medium was replaced with pre-warmed KHB. […] PyrAtes were excited using a 405 nm laser, and its fluorescent signals collected using 525/50 nm emission filters; mCherry was excited using a 561 nm laser, and fluorescence was collected using 595/50 nm emission filters. […]
5HT-mediated currents were measured at room temperature (20-25°C) using whole-cell patch clamp in HEK293 cells stably expressing SERT. […]

Series [1] in a line: photophysical properties in aqueous media. It is filed as physicochemical. The note with it: PBS:DMSO 99:1 v/v; for Quantum yield: C153 as internal standard. An excerpt: Table S5. Photophysical properties of PyrAte-(S)-citalopram conjugates in aqueous media (PBS:DMSO
99:1 v/v). C153 (coumarin 153) was used as internal standard for the measurement of quantum yield.
Compound λmax (nm) λEm (nm) Stokes shift ε at λmax Quantum Brightness (at λmax,
(nm) (M-1 cm-1) yield 103 M-1 cm-1)

As usually defined, the IC50 is the point on the concentration scale where inhibition reaches its midpoint.

Structures are written as SMILES.

T1 sequence (P31645 whole entry): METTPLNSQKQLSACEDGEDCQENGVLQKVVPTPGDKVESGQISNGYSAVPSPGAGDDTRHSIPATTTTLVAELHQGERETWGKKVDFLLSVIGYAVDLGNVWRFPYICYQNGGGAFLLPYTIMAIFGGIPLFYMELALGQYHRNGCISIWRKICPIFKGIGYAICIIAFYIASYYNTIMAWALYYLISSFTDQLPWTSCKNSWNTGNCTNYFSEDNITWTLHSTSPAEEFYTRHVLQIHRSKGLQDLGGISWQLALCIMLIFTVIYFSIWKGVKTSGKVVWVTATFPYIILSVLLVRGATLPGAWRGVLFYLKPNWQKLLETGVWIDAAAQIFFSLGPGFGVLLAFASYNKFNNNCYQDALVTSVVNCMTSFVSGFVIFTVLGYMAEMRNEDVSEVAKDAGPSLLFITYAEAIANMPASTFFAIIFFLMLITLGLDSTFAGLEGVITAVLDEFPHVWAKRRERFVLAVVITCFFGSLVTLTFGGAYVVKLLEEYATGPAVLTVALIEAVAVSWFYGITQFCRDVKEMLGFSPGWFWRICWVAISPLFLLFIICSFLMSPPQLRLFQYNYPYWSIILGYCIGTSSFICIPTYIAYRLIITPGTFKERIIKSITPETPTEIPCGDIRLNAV

As to `CCN(CC)c1ccc(-c2cc[n+]3c(-c4ccccc4)c(N4CCCC4)n(CCCC(=O)NCc4ccc5c(c4)CO[C@@]5(CCCN(C)C)c4ccc(F)cc4)c3c2)cc1` [PYR-C3-CIT, PyrAte-C3-(S)-citalopram], at YhSERT, the IC50 was 400 nM, the “selectivity to SERT vs. DAT” value was “around 10 fold”, the “selectivity to SERT vs. NET” value is 27 fold and the “selectivity to SERT vs. OCT3” value is reported as 8.2 fold. At YhSERT, the “decrease of SERT affinity (IC50) compared to (S)-citalopram” value is on record as 10 fold and the “Hill coefficient nH at SERT” value was −3.0. Also, on YhOCT3, the IC50 was determined as 3320 nM and the “Hill coefficient nH at OCT3” value is reported as −2.1. Besides, in series [1], the “Brightness (at λmax)” value was 24.0 103 M-1 cm-1, the Stokes shift came to 88 nm, the “ε at λmax” value stood at 30000 M⁻¹ cm⁻¹ and the λEm worked out at 493 nm. In series [1], this compound registered a λmax of 405 nm and a Quantum yield of 0.82.

Turning to `CCN(CC)c1ccc(-c2cc[n+]3c(-c4ccccc4)c(N4CCCC4)n(CCCCCCC(=O)NCc4ccc5c(c4)CO[C@@]5(CCCN(C)C)c4ccc(F)cc4)c3c2)cc1` [PYR-C6-CIT, PyrAte-C6-(S)-citalopram], on YhSERT, the IC50 was determined as 830 nM, the “selectivity to SERT vs. DAT” value turned out to be 2.5 fold, the “selectivity to SERT vs. NET” value is on record as 15 fold and the “selectivity to SERT vs. OCT3” value came out at 2.5 fold. Also, at YhSERT, the “decrease of SERT affinity (IC50) compared to (S)-citalopram” value is “around 20 fold” and the “Hill coefficient nH at SERT” value is −3.1. Besides, at YhOCT3, the IC50 amounted to 2100 nM and the “Hill coefficient nH at OCT3” value was −2.3. In series [1], the “Brightness (at λmax)” value is 27.0 103 M-1 cm-1, the Stokes shift was found to be 87 nm, the “ε at λmax” value was determined as 39600 M⁻¹ cm⁻¹ and the λEm is given as 493 nm. Besides, in series [1], the λmax is given as 406 nm and the Quantum yield was found to be 0.69.
